From patent US20260201008A1, “SECRETIN-DERIVED GLP1R SELECTIVE AGONISTS” (GUBRA A/S, priority 2023, published 2026)
Numbered stars: 1 amine (or outer) side, 2 acyl side, 3 side chain; on linkers, the order of the positions; unused ones are H or OH. Square brackets hold non-standard residues; d marks the D form. Side chains are listed from the residue outwards. Ends that are not written are not given here. Peptide text beside a SMILES is read from it. * marks the point of attachment. C20 diacid = O=C(O)CCCCCCCCCCCCCCCCCCC(=O)*; γGlu = O=C(O)[C@H](CCC(=O)[*:2])N[*:1]; AEEA = NCCOCCOCC(=O)O; Aib = CC(C)(N)C(=O)O

Experiments:
[1] = Turbidity of crude library peptides (absorbance at 600 nm); format: physicochemical; details: Physical stability of peptides
Procedure, shortened: (§1)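 Fibril formation is scored as average ThT fluorescence from duplicate samples monitored for 72 h at 40° C with shaking stress. Turbidity is the absorbance at 600 nm taken before heating. Peptide concentration was 267 μM at pH 4.0 or pH 7.0.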

SCTR = SCTR (Homo sapiens, UniProt P47872); test: hSCTR potency, cAMP accumulation in CHO-K1 cells stably overexpressing hSCTR; format: cell-based; design: alternatively Euroscreen ES-712-AF; FAST-0161L; host or cells: CHO-K1; details: cAMP accumulation, CHO-K1 cells stably overexpressing hSCTR; read-out: hSCTR potency (pEC50) (converted)
Procedure, shortened: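 CHO-K1/hSCTR cells; DPBS + 0.05% casein + 0.5 mM IBMX; 30 min RT stimulation; cAMP by TR-FRET read at 1 h. Crude peptides: 5-point 10-fold dilutions, n=1. Purified: 11-point 3-fold dilutions, n=2. EC50 via variable-slope fit.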

[2] = Fibril formation of crude library peptides (Thioflavin T); format: physicochemical; design: key: average ThT fluorescence emission at 480 nm (ex 450 nm), raw units; details: Physical stability of peptides
Procedure, shortened: as §1

GLP1R = GLP1R (Homo sapiens, UniProt P43220); test: hGLP1R potency, cAMP accumulation in CHO-K1 cells stably overexpressing hGLP1R; format: cell-based; design: host or cells: CHO-K1; details: for EC50: cAMP accumulation, CHO-K1 cells stably overexpressing hGLP1R, read-out: hGLP1R potency (pEC50) (converted); for SCTR EC50/GLP1R EC50 ratio: selectivity ratio, hSCTR vs hGLP1R, cAMP accumulation in CHO-K1 cells
Procedure, shortened: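 TR-FRET cAMP read-out, one hour after reagent addition, following 30 min compound exposure at RT in DPBS/0.05% casein/0.5 mM IBMX. Crude peptides: 5 points, 10-fold steps, n=1. Purified peptides: 11 points, 3-fold steps, n=2. EC50 fitted with a variable-slope sigmoid.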

[3] = molecular target: human secretin receptor (hSCTR) (human, UniProt P47872 23-440); test: cell-based or functional assay
[4] = molecular target: human GLP-1 receptor (hGLP1R) (human, UniProt P43220 24-463); test: cell-based or functional assay

Chain of SCTR (P47872 23-440): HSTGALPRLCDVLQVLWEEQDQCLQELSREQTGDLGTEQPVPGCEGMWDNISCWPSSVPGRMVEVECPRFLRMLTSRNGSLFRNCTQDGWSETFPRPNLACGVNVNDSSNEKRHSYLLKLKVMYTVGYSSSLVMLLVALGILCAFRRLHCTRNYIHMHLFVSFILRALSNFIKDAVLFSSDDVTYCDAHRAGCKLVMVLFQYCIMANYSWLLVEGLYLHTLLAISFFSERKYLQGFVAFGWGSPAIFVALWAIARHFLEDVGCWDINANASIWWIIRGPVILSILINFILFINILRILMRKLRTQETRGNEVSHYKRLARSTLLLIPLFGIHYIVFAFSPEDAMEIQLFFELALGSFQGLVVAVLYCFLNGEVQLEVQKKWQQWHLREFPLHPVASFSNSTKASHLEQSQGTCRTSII
Chain of human secretin receptor (hSCTR) (P47872 23-440): as above
Chain of GLP1R (P43220 24-463): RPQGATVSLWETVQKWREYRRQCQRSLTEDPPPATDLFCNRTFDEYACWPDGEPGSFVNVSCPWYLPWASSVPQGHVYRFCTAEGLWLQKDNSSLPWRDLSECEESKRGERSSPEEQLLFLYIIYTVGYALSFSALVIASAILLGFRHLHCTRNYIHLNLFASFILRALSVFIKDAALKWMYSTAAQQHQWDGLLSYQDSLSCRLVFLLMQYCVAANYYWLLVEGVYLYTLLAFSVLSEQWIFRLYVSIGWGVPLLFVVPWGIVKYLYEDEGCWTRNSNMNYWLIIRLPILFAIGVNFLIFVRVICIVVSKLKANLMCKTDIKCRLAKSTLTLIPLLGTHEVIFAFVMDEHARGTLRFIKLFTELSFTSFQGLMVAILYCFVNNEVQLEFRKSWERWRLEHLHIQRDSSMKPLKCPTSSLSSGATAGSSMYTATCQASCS

Turbidity (pH 7) [1]	EC50 (SCTR)	Fibril formation [2]	EC50 (GLP1R)	SCTR EC50/GLP1R EC50 ratio (GLP1R)	pEC50 hSCTR [3]	pEC50 hGLPR1 [4]	Molecule
0.21	7.94 nM	7498	0.0158 nM	492			CC[C@H](C)[C@H](NC(=O)[C@H](Cc1ccccc1)NC(=O)[C@H](CCCNC(=N)N)NC(=O)[C@H](CCC(N)=O)NC(=O)[C@H](CC(C)C)NC(=O)[C@H](C)NC(=O)[C@H](C)NC(=O)CNC(=O)[C@H](CCC(=O)O)NC(=O)[C@H](CC(C)C)NC(=O)[C@H](CC(C)C)NC(=O)C(C)(C)NC(=O)[C@H](CO)NC(=O)[C@H](Cc1ccc(O)cc1)NC(=O)[C@H](CC(=O)O)NC(=O)[C@H](CO)NC(=O)[C@@H](NC(=O)[C@H](Cc1ccccc1)NC(=O)[C@@H](NC(=O)CNC(=O)[C@H](CCC(=O)O)NC(=O)C(C)(C)NC(=O)[C@@H](N)Cc1c[nH]cn1)[C@@H](C)O)[C@@H](C)O)C(=O)N[C@@H](CCC(N)=O)C(=O)N[C@@H](Cc1c[nH]c2ccccc12)C(=O)N[C@@H](CC(C)C)C(=O)N[C@H](C(N)=O)C(C)C [compound 197] (H-H[Aib]EGTFTSDYS[Aib]LLEGAALQRFIQWLV-NH2)
0.33	5.01 nM	257659	0.0251 nM	185			CC[C@H](C)[C@H](NC(=O)[C@H](Cc1ccccc1)NC(=O)[C@H](CCCNC(=N)N)NC(=O)[C@H](CCC(N)=O)NC(=O)[C@H](CC(C)C)NC(=O)[C@H](C)NC(=O)[C@H](C)NC(=O)CNC(=O)[C@H](CCC(=O)O)NC(=O)[C@H](CC(C)C)NC(=O)[C@H](CC(C)C)NC(=O)[C@@H](NC(=O)[C@H](CO)NC(=O)[C@H](Cc1ccc(O)cc1)NC(=O)[C@H](CC(=O)O)NC(=O)[C@H](CO)NC(=O)[C@@H](NC(=O)[C@H](Cc1ccccc1)NC(=O)[C@@H](NC(=O)CNC(=O)[C@H](CCC(=O)O)NC(=O)C(C)(C)NC(=O)[C@@H](N)Cc1c[nH]cn1)[C@@H](C)O)[C@@H](C)O)C(C)C)C(=O)N[C@@H](CCC(N)=O)C(=O)N[C@@H](Cc1c[nH]c2ccccc12)C(=O)N[C@@H](CC(C)C)C(=O)N[C@H](C(N)=O)C(C)C [compound 198] (H-H[Aib]EGTFTSDYSVLLEGAALQRFIQWLV-NH2)
0.46	5.01 nM	260000	0.0251 nM	223			CC[C@H](C)[C@H](NC(=O)[C@H](Cc1ccccc1)NC(=O)[C@H](CCCNC(=N)N)NC(=O)[C@H](CCC(N)=O)NC(=O)[C@H](CC(C)C)NC(=O)[C@H](C)NC(=O)[C@H](C)NC(=O)CNC(=O)[C@H](CCC(=O)O)NC(=O)[C@H](CC(C)C)NC(=O)[C@H](CC(C)C)NC(=O)[C@H](CCC(=O)O)NC(=O)[C@H](CO)NC(=O)[C@H](Cc1ccc(O)cc1)NC(=O)[C@H](CC(=O)O)NC(=O)[C@H](CO)NC(=O)[C@@H](NC(=O)[C@H](Cc1ccccc1)NC(=O)[C@@H](NC(=O)CNC(=O)[C@H](CCC(=O)O)NC(=O)C(C)(C)NC(=O)[C@@H](N)Cc1c[nH]cn1)[C@@H](C)O)[C@@H](C)O)C(=O)N[C@@H](CCC(N)=O)C(=O)N[C@@H](Cc1c[nH]c2ccccc12)C(=O)N[C@@H](CC(C)C)C(=O)N[C@H](C(N)=O)C(C)C [compound 199] (H-H[Aib]EGTFTSDYSELLEGAALQRFIQWLV-NH2)
0.92	7.94 nM	141730	0.02 nM	353			CC[C@H](C)[C@H](NC(=O)[C@H](Cc1ccccc1)NC(=O)[C@H](CCCNC(=N)N)NC(=O)[C@H](CCC(N)=O)NC(=O)[C@H](CC(C)C)NC(=O)[C@H](C)NC(=O)[C@H](C)NC(=O)CNC(=O)[C@H](CCC(=O)O)NC(=O)[C@H](CC(C)C)NC(=O)[C@H](CC(C)C)NC(=O)[C@H](Cc1c[nH]c2ccccc12)NC(=O)[C@H](CO)NC(=O)[C@H](Cc1ccc(O)cc1)NC(=O)[C@H](CC(=O)O)NC(=O)[C@H](CO)NC(=O)[C@@H](NC(=O)[C@H](Cc1ccccc1)NC(=O)[C@@H](NC(=O)CNC(=O)[C@H](CCC(=O)O)NC(=O)C(C)(C)NC(=O)[C@@H](N)Cc1c[nH]cn1)[C@@H](C)O)[C@@H](C)O)C(=O)N[C@@H](CCC(N)=O)C(=O)N[C@@H](Cc1c[nH]c2ccccc12)C(=O)N[C@@H](CC(C)C)C(=O)N[C@H](C(N)=O)C(C)C [compound 200] (H-H[Aib]EGTFTSDYSWLLEGAALQRFIQWLV-NH2)
0.30	12.6 nM	30208	0.0126 nM	940			CC[C@H](C)[C@H](NC(=O)[C@H](Cc1ccccc1)NC(=O)[C@H](CCCNC(=N)N)NC(=O)[C@H](CCC(N)=O)NC(=O)[C@H](CC(C)C)NC(=O)[C@H](C)NC(=O)[C@H](C)NC(=O)CNC(=O)[C@H](CCC(=O)O)NC(=O)[C@H](CC(C)C)NC(=O)[C@H](CC(C)C)NC(=O)[C@H](Cc1ccc(O)cc1)NC(=O)[C@H](CO)NC(=O)[C@H](Cc1ccc(O)cc1)NC(=O)[C@H](CC(=O)O)NC(=O)[C@H](CO)NC(=O)[C@@H](NC(=O)[C@H](Cc1ccccc1)NC(=O)[C@@H](NC(=O)CNC(=O)[C@H](CCC(=O)O)NC(=O)C(C)(C)NC(=O)[C@@H](N)Cc1c[nH]cn1)[C@@H](C)O)[C@@H](C)O)C(=O)N[C@@H](CCC(N)=O)C(=O)N[C@@H](Cc1c[nH]c2ccccc12)C(=O)N[C@@H](CC(C)C)C(=O)N[C@H](C(N)=O)C(C)C [compound 201] (H-H[Aib]EGTFTSDYSYLLEGAALQRFIQWLV-NH2)
0.60	39.8 nM	260000	0.0398 nM	820			CC[C@H](C)[C@H](NC(=O)[C@H](Cc1ccccc1)NC(=O)[C@H](CCCNC(=N)N)NC(=O)[C@H](CCC(N)=O)NC(=O)[C@H](CC(C)C)NC(=O)[C@H](C)NC(=O)[C@H](C)NC(=O)CNC(=O)[C@H](CCC(=O)O)NC(=O)[C@H](CC(C)C)NC(=O)[C@H](CC(C)C)NC(=O)[C@H](Cc1ccccc1)NC(=O)[C@H](CO)NC(=O)[C@H](Cc1ccc(O)cc1)NC(=O)[C@H](CC(=O)O)NC(=O)[C@H](CO)NC(=O)[C@@H](NC(=O)[C@H](Cc1ccccc1)NC(=O)[C@@H](NC(=O)CNC(=O)[C@H](CCC(=O)O)NC(=O)C(C)(C)NC(=O)[C@@H](N)Cc1c[nH]cn1)[C@@H](C)O)[C@@H](C)O)C(=O)N[C@@H](CCC(N)=O)C(=O)N[C@@H](Cc1c[nH]c2ccccc12)C(=O)N[C@@H](CC(C)C)C(=O)N[C@H](C(N)=O)C(C)C [compound 202] (H-H[Aib]EGTFTSDYSFLLEGAALQRFIQWLV-NH2)
					6.8 -log M	11 -log M	H[Aib]EGTFTSDVSELK([AEEA-AEEA-γGlu-C20 diacid])EEAATQRFLEHLV-NH2 [SEQ ID NO: 55]
					5.1 -log M	10.4 -log M	H[Aib]EGTFTSDVSFLK([AEEA-AEEA-γGlu-C20 diacid])EEAAEQRFLEHLV-NH2 [SEQ ID NO: 56]

More lines, now with the values behind:

Molecule	Turbidity (pH 7) [1]	EC50 (SCTR)	Fibril formation [2]	EC50 (GLP1R)	SCTR EC50/GLP1R EC50 ratio (GLP1R)	pEC50 hSCTR [3]	pEC50 hGLPR1 [4]
H[Aib]EGTFTSDVSVLK([AEEA-AEEA-γGlu-C20 diacid])EEAATQRFLEHLV-NH2 [SEQ ID NO: 53]						7.2 -log M	11.3 -log M
H[Aib]EGTFTSDVSTLK([AEEA-AEEA-γGlu-C20 diacid])EEAASQRFLEHLV-NH2 [SEQ ID NO: 6]						6.5 -log M	10.5 -log M
H[Aib]EGTFTSDVSELK([AEEA-AEEA-γGlu-C20 diacid])EEAAEQRFLEHLV-NH2 [SEQ ID NO: 51]						5.7 -log M	10.5 -log M
H[Aib]EGTFTSDVSRLK([AEEA-AEEA-γGlu-C20 diacid])EFAASQRFLEHLV-NH2 [SEQ ID NO: 52]						6.4 -log M	9.9 -log M
H[Aib]EGTFTSDVSELK([AEEA-AEEA-γGlu-C20 diacid])ETAATQRFLEHLV-NH2 [SEQ ID NO: 54]						6.9 -log M	10.9 -log M
H[Aib]EGTFTSDVSRLK([AEEA-AEEA-γGlu-C20 diacid])E[Aib]AATQRFLEHLV-NH2 [SEQ ID NO: 50]						7.3 -log M	10.8 -log M
H[Aib]EGTFTSDVSRLK([AEEA-AEEA-γGlu-C20 diacid])EEAA[Aib]QRFLEHLV-NH2 (also: K14 lipid also given as C18DA[γE][OEG][OEG]-) [SEQ ID NO: 1]						6.8 -log M	10.4 -log M
H[Aib]EGTFTSDVSELK([AEEA-AEEA-γGlu-C20 diacid])E[Aib]AAQQRFLEHLV-NH2 [SEQ ID NO: 5]						7.1 -log M	10.9 -log M
